BindingDB's records for doi:10.1021/acs.biochem.5b01128 (University College London, 2016)
pIC50: −log10 of the molar value.

Tests used:
Experiment in all cases: Kinase Inhibition Assay
[1] = molecular target: Dual specificity protein kinase CLK1 (Homo sapiens, UniProt P49759)
[2] = molecular target: Dual specificity protein kinase CLK2 (Homo sapiens, UniProt P49760)
[3] = molecular target: Dual specificity protein kinase CLK3 (Homo sapiens, UniProt P49761)
[4] = molecular target: Dual specificity tyrosine-phosphorylation-regulated kinase 1A (Homo sapiens, UniProt Q13627)

Dual specificity protein kinase CLK3, sequence (P49761 as listed by the source): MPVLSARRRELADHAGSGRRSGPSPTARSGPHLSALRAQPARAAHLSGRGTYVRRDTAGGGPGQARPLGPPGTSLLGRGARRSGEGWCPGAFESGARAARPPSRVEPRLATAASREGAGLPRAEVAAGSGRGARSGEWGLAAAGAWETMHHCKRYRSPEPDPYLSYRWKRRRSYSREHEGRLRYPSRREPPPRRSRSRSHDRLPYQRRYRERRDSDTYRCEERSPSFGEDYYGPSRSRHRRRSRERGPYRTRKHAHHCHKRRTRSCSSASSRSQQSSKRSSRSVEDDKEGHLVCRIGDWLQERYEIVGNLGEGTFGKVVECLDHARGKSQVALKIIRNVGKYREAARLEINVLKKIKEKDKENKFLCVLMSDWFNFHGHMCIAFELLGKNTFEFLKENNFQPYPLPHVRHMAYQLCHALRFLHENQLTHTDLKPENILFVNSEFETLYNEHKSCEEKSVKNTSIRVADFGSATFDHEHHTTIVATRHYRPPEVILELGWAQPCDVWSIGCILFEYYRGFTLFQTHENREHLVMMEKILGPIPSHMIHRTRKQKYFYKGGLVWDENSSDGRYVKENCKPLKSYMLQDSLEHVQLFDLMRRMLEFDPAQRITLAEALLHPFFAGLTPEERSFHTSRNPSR
Dual specificity protein kinase CLK1, sequence (P49759 whole entry): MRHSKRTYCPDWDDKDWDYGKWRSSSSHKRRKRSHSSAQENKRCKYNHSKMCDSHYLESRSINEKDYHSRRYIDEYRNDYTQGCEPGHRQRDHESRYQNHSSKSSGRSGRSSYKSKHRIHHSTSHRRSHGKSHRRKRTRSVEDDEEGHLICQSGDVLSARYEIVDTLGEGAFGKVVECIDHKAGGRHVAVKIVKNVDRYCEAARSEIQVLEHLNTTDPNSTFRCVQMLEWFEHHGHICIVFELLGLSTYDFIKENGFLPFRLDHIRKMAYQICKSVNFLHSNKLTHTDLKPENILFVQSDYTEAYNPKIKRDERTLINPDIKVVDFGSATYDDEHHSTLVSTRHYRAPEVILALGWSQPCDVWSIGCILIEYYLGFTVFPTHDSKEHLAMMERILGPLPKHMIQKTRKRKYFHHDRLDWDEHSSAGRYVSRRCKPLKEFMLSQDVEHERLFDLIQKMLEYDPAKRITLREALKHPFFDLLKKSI
Dual specificity protein kinase CLK2, sequence (P49760 whole entry): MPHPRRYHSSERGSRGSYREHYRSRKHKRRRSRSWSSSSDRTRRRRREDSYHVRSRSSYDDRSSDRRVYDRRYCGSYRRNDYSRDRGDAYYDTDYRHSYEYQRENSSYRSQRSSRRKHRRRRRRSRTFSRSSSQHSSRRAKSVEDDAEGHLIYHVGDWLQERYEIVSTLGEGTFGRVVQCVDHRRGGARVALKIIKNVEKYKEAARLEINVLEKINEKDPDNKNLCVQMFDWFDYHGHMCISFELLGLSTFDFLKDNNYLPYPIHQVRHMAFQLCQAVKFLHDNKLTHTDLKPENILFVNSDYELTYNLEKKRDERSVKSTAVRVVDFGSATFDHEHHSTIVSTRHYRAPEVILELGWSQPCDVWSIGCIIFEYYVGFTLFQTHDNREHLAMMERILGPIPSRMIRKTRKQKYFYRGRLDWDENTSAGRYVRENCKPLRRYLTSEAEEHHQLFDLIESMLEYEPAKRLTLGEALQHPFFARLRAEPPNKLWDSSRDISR

Row | pIC50 [1] | pIC50 [2] | pIC50 [3] | pIC50 [4] | Compound
1 | 6.56 | 6.76 | < 5.52 | 6.48 | CSc1nc2ccc3nc(NC(=O)c4ccco4)sc3c2s1 [5E4]
2 | 7.29 | 7.17 | 6.46 | 6.59 | Cc1nc2ccc3sc(NC(=O)c4ccc5ncsc5c4)nc3c2s1 [3A5]
3 | 6.41 | 6.26 | < 5.52 |  | O=C1N=C(NCc2cccs2)S/C1=C/c1ccc2ncccc2c1 [NR9]
4 | 6.56 | 6.90 | < 5.52 | 6.67 | CSc1nc2ccc3nc(NC(=O)c4ccc(S(=O)(=O)N5CCOCC5)cc4)sc3c2s1 [5F4]
